Measurements: patent US11006631B2, “Substituted pyrimidinyloxy pyridine derivatives as herbicides” (FMC Corporation, priority 2015, dated 2021)

How the values were obtained:
Assay type in all cases: in vivo
[1] = tested on: barnyardgrass (Echinochloa crus-galli); experiment: Test A preemergence, barnyardgrass; conditions: 0 to 100 scale
From the text: (§1) Seeds of plant species selected from bamyardgrass (Echinochloa crus-galli), kochia (Kochia scoparia), ragweed (common ragweed, Ambrosia elatior), ryegrass, Italian (Italian ryegrass, Lolium multiflorum), foxtail, giant (giant foxtail, Setaria faberii), pigweed (Amaranthus retroflexus), crabgrass, large (large crabgrass, Digitaria sanguinalis), momingglory (Ipomoea spp.), velvetleaf (Abutilon theophrasti), wheat (Triticum aestivum), and corn (Zea mays) were planted into a blend of loam soil and sand and treated preemergence with a directed soil spray using test chemicals formulated in a non-phytotoxic solvent mixture which included a surfactant. At the same time, plants selected from these crop and weed species and also blackgrass (Alopecurus myosuroides), and galium (catchweed bedstraw, Galium aparine) were planted in pots containing the same blend of loam soil and sand and treated with postemergence applications of test chemicals formulated in the same manner. Plants ranged in height from 2 to 10 cm and were in the one- to two-leaf stage for the postemergence treatment. Treated plants and untreated controls were maintained in a greenhouse for approximately 10 days, after which time all treated plants were compared to untreated controls and visually evaluated for injury. Plant response ratings, summarized in Table A, are based on a 0 to 100 scale where 0 is no effect and 100 is complete control. A dash (-) response means no test result.

kochia (Kochia scoparia) [2] = experiment: Test A preemergence, kochia; conditions: 0 to 100 scale
From the text: as §1

[3] = tested on: ragweed (common ragweed, Ambrosia elatior); experiment: Test A preemergence, ragweed; conditions: 0 to 100 scale
From the text: as §1

[4] = tested on: ryegrass, Italian (Italian ryegrass, Lolium multiflorum); experiment: Test A preemergence, ryegrass, Italian; conditions: 0 to 100 scale
From the text: as §1

[5] = tested on: foxtail, giant (giant foxtail, Setaria faberii); experiment: Test A preemergence, foxtail, giant; conditions: 0 to 100 scale
From the text: as §1

[6] = tested on: pigweed (Amaranthus retroflexus); experiment: Test A preemergence, pigweed; conditions: 0 to 100 scale
From the text: as §1

[7] = tested on: barnyardgrass (Echinochloa crus-galli); experiment: Test A postemergence, barnyardgrass; conditions: 0 to 100 scale
From the text: as §1

kochia (Kochia scoparia) [8] = experiment: Test A postemergence, kochia; conditions: 0 to 100 scale
From the text: as §1

[9] = tested on: ragweed (common ragweed, Ambrosia elatior); experiment: Test A postemergence, ragweed; conditions: 0 to 100 scale
From the text: as §1

[10] = tested on: ryegrass, Italian (Italian ryegrass, Lolium multiflorum); experiment: Test A postemergence, ryegrass, Italian; conditions: 0 to 100 scale
From the text: as §1

[11] = tested on: foxtail, giant (giant foxtail, Setaria faberii); experiment: Test A postemergence, foxtail, giant; conditions: 0 to 100 scale
From the text: as §1

[12] = tested on: pigweed (Amaranthus retroflexus); experiment: Test A postemergence, pigweed; conditions: 0 to 100 scale
From the text: as §1

[13] = tested on: wheat (Triticum aestivum); experiment: Test A postemergence, wheat; conditions: 0 to 100 scale
From the text: as §1

corn (Zea mays) = experiment: Test A postemergence, corn; conditions: 0 to 100 scale
From the text: as §1

[14] = tested on: blackgrass (Alopecurus myosuroides); experiment: Test A postemergence, blackgrass; conditions: 0 to 100 scale
From the text: as §1

[15] = tested on: galium (catchweed bedstraw, Galium aparine); experiment: Test A postemergence, galium; conditions: 0 to 100 scale
From the text: as §1

rice (Oryza sativa) = experiment: Test B flooded paddy test, rice; conditions: Flood, 250 g ai/ha; scale of 0 to 100
Experimental: (§2) Plant species in the flooded paddy test selected from rice (Oryza sativa), sedge, umbrella (small-flower umbrella sedge, Cyperus difformis), ducksalad (Heteranthera limosa), and barnyardgrass (Echinochloa crus-galli) were grown to the 2-leaf stage for testing. At time of treatment, test pots were flooded to 3 cm above the soil surface, treated by application of test compounds directly to the paddy water, and then maintained at that water depth for the duration of the test. Treated plants and controls were maintained in a greenhouse for 13 to 15 days, after which time all species were compared to controls and visually evaluated. Plant response ratings, summarized in Table B, are based on a scale of 0 to 100 where 0 is no effect and 100 is complete control. A dash (-) response means no test result.

[16] = tested on: sedge, umbrella (small-flower umbrella sedge, Cyperus difformis); experiment: Test B flooded paddy test, sedge, umbrella; conditions: Flood, 250 g ai/ha; scale of 0 to 100
Experimental: as §2

[17] = tested on: ducksalad (Heteranthera limosa); experiment: Test B flooded paddy test, ducksalad; conditions: Flood, 250 g ai/ha; scale of 0 to 100
Experimental: as §2

[18] = tested on: barnyardgrass (Echinochloa crus-galli); experiment: Test B flooded paddy test, barnyardgrass; conditions: Flood, 250 g ai/ha; scale of 0 to 100
Experimental: as §2

FC(F)(F)c1cc(-c2ncccc2Oc2ncc(Cl)cn2)ccn1 [Compound 14]
90: Plant response rating, Foxtail, Giant ([5]; 125 g ai/ha) | Plant response rating, Foxtail, Giant ([11]; 500 g ai/ha) | Plant response rating, Blackgrass ([14]; 500 g ai/ha) | Plant response rating, Galium ([15]; 500 g ai/ha)
50: Plant response rating, Galium ([15]; 125 g ai/ha) | Plant response rating, Sedge, Umbrella [16]
60: Plant response rating, Barnyardgrass ([7]; 500 g ai/ha) | Plant response rating, Foxtail, Giant ([11]; 125 g ai/ha)
40: Plant response rating, Barnyardgrass ([1]; 125 g ai/ha) | Plant response rating, Barnyardgrass ([7]; 125 g ai/ha) | Plant response rating, Ryegrass, Italian ([10]; 500 g ai/ha) | Plant response rating, Corn (corn (Zea mays); 500 g ai/ha) | Plant response rating, Ducksalad [17]
0: Plant response rating, Ragweed ([3]; 125 g ai/ha) | Plant response rating, Wheat ([13]; 125 g ai/ha) | Plant response rating, Rice (rice (Oryza sativa)) | Plant response rating, Barnyardgrass [18]
30: Plant response rating, Ragweed ([9]; 500 g ai/ha) | Plant response rating, Ryegrass, Italian ([10]; 125 g ai/ha)
80: Plant response rating, Kochia (kochia (Kochia scoparia) [8]; 125 g ai/ha)
20: Plant response rating, Ragweed ([3]; 500 g ai/ha) | Plant response rating, Ryegrass, Italian ([4]; 500 g ai/ha) | Plant response rating, Corn (corn (Zea mays); 125 g ai/ha)
10: Plant response rating, Ryegrass, Italian ([4]; 125 g ai/ha) | Plant response rating, Ragweed ([9]; 125 g ai/ha) | Plant response rating, Wheat ([13]; 500 g ai/ha) | Plant response rating, Blackgrass ([14]; 125 g ai/ha)
100: Plant response rating, Barnyardgrass ([1]; 500 g ai/ha) | Plant response rating, Kochia (kochia (Kochia scoparia) [2]; 125 g ai/ha) | Plant response rating, Kochia (kochia (Kochia scoparia) [2]; 500 g ai/ha) | Plant response rating, Foxtail, Giant ([5]; 500 g ai/ha) | Plant response rating, Pigweed ([6]; 125 g ai/ha) | Plant response rating, Pigweed ([6]; 500 g ai/ha) | Plant response rating, Kochia (kochia (Kochia scoparia) [8]; 500 g ai/ha) | Plant response rating, Pigweed ([12]; 125 g ai/ha) | Plant response rating, Pigweed ([12]; 500 g ai/ha)

FC(F)c1cc(-c2ncccc2Oc2ncc(Cl)cn2)no1 [Compound 6, 5-chloro-2-[[2-[5-(difluoromethyl)-3-isoxazolyl]-3-pyridinyl]oxy]pyrimidine]
0: Plant response rating, Barnyardgrass ([1]; 31 g ai/ha) | Plant response rating, Ragweed ([3]; 31 g ai/ha) | Plant response rating, Ryegrass, Italian ([4]; 31 g ai/ha) | Plant response rating, Ryegrass, Italian ([4]; 125 g ai/ha) | Plant response rating, Foxtail, Giant ([5]; 31 g ai/ha) | Plant response rating, Ryegrass, Italian ([10]; 31 g ai/ha) | Plant response rating, Blackgrass ([14]; 31 g ai/ha) | Plant response rating, Rice (rice (Oryza sativa)) | Plant response rating, Sedge, Umbrella [16] | Plant response rating, Barnyardgrass [18]
30: Plant response rating, Barnyardgrass ([7]; 125 g ai/ha) | Plant response rating, Wheat ([13]; 125 g ai/ha) | Plant response rating, Corn (corn (Zea mays); 125 g ai/ha) | Plant response rating, Ducksalad [17]
50: Plant response rating, Ragweed ([3]; 125 g ai/ha) | Plant response rating, Galium ([15]; 31 g ai/ha)
10: Plant response rating, Barnyardgrass ([7]; 31 g ai/ha) | Plant response rating, Ryegrass, Italian ([10]; 125 g ai/ha)
70: Plant response rating, Barnyardgrass ([1]; 125 g ai/ha) | Plant response rating, Pigweed ([12]; 31 g ai/ha) | Plant response rating, Galium ([15]; 125 g ai/ha)
60: Plant response rating, Kochia (kochia (Kochia scoparia) [2]; 31 g ai/ha)
40: Plant response rating, Ragweed ([9]; 125 g ai/ha) | Plant response rating, Foxtail, Giant ([11]; 125 g ai/ha)
20: Plant response rating, Ragweed ([9]; 31 g ai/ha) | Plant response rating, Foxtail, Giant ([11]; 31 g ai/ha) | Plant response rating, Wheat ([13]; 31 g ai/ha) | Plant response rating, Corn (corn (Zea mays); 31 g ai/ha) | Plant response rating, Blackgrass ([14]; 125 g ai/ha)
90: Plant response rating, Kochia (kochia (Kochia scoparia) [2]; 125 g ai/ha) | Plant response rating, Foxtail, Giant ([5]; 125 g ai/ha) | Plant response rating, Pigweed ([6]; 31 g ai/ha) | Plant response rating, Kochia (kochia (Kochia scoparia) [8]; 31 g ai/ha)
100: Plant response rating, Pigweed ([6]; 125 g ai/ha) | Plant response rating, Kochia (kochia (Kochia scoparia) [8]; 125 g ai/ha) | Plant response rating, Pigweed ([12]; 125 g ai/ha)

[O-][n+]1cccc(Oc2ncc(Cl)cn2)c1-n1cc(Br)cn1 [Compound 11]
20: Plant response rating, Ragweed ([9]; 1000 g ai/ha)
90: Plant response rating, Pigweed ([12]; 1000 g ai/ha)
0: Plant response rating, Barnyardgrass ([1]; 1000 g ai/ha) | Plant response rating, Ryegrass, Italian ([4]; 1000 g ai/ha) | Plant response rating, Foxtail, Giant ([5]; 1000 g ai/ha) | Plant response rating, Barnyardgrass ([7]; 1000 g ai/ha) | Plant response rating, Ryegrass, Italian ([10]; 1000 g ai/ha) | Plant response rating, Foxtail, Giant ([11]; 1000 g ai/ha) | Plant response rating, Wheat ([13]; 1000 g ai/ha) | Plant response rating, Corn (corn (Zea mays); 1000 g ai/ha)
10: Plant response rating, Blackgrass ([14]; 1000 g ai/ha)
40: Plant response rating, Galium ([15]; 1000 g ai/ha)
30: Plant response rating, Kochia (kochia (Kochia scoparia) [2]; 1000 g ai/ha) | Plant response rating, Ragweed ([3]; 1000 g ai/ha)
100: Plant response rating, Pigweed ([6]; 1000 g ai/ha)
60: Plant response rating, Kochia (kochia (Kochia scoparia) [8]; 1000 g ai/ha)
